± gives the standard deviation of the averaged measurements.
Legend:
BLEOMYCIN = compound: Cc1c(N)nc([C@H](CC(N)=O)NC[C@H](N)C(N)=O)nc1C(=O)N[C@H](C(=O)N[C@H](C)[C@@H](O)[C@H](C)C(=O)N[C@H](C(=O)NCCc1nc(-c2nc(C(=O)NCCC[S+](C)C)cs2)cs1)[C@@H](C)O)[C@@H](OC1OC(CO)C(O)C(O)C1OC1OC(CO)C(O)C(OC(N)=O)C1O)c1cnc[nH]1 [BLEOMYCIN]; assay: surviving fraction relative to DMSO-only wells; higher = less growth inhibition; details: exposure time: 5 days
Outline: (§1)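 At 250–500 cells per well in 384-well plates, log-phase tumour cell lines were seeded and, 24 hours on, exposed continuously for five days to inhibitors at 0.5, 1, 5, 10, 50, 100, 500 and 1000 nM. Viability readout was CellTiter-Glo luminescence, reported as surviving fraction normalised to the median of DMSO-only wells.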

AFIMOXIFENE = compound: CC/C(=C(\c1ccc(O)cc1)c1ccc(OCCN(C)C)cc1)c1ccccc1 [AFIMOXIFENE]; assay: as above; details: exposure time: 5 days
Outline: as §1

Test System | surviving fraction (BLEOMYCIN; 0.5 nM) | surviving fraction (BLEOMYCIN; 1 nM) | surviving fraction (BLEOMYCIN; 5 nM) | surviving fraction (BLEOMYCIN; 10 nM) | surviving fraction (BLEOMYCIN; 50 nM) | surviving fraction (BLEOMYCIN; 100 nM) | surviving fraction (BLEOMYCIN; 500 nM) | surviving fraction (BLEOMYCIN; 1000 nM) | surviving fraction (AFIMOXIFENE; 0.5 nM) | surviving fraction (AFIMOXIFENE; 1 nM) | surviving fraction (AFIMOXIFENE; 5 nM) | surviving fraction (AFIMOXIFENE; 10 nM) | surviving fraction (AFIMOXIFENE; 50 nM) | surviving fraction (AFIMOXIFENE; 100 nM) | surviving fraction (AFIMOXIFENE; 500 nM) | surviving fraction (AFIMOXIFENE; 1000 nM)
MDAMB436 BREAST | 0.799 ± 0.027 | 0.825 ± 0.031 | 0.834 ± 0.024 | 0.791 ± 0.033 | 0.773 ± 0.031 | 0.814 ± 0.06 | 0.598 ± 0.056 | 0.506 ± 0.073 | 0.962 ± 0.085 | 0.99 ± 0.11 | 0.965 ± 0.087 | 1.03 ± 0.21 | 1.03 ± 0.11 | 1.08 ± 0.13 | 1.01 ± 0.066 | 1 ± 0.063
CAL51 BREAST | 0.911 ± 0.036 | 0.893 ± 0.052 | 0.904 ± 0.018 | 0.884 ± 0.014 | 0.729 ± 0.043 | 0.621 ± 0.037 | 0.273 ± 0.016 | 0.17 ± 0.011 | 0.988 ± 0.042 | 0.966 ± 0.054 | 1.05 ± 0.1 | 0.984 ± 0.029 | 1.04 ± 0.046 | 1.05 ± 0.028 | 1.08 ± 0.036 | 0.969 ± 0.028
HOS BONE | 0.936 ± 0.0079 | 0.926 ± 0.023 | 0.9497 ± 0.0038 | 0.94 ± 0.017 | 1 ± 0.035 | 0.984 ± 0.014 | 0.589 ± 0.043 | 0.291 ± 0.039 | 1.02 ± 0.013 | 1.03 ± 0.016 | 1.06 ± 0.012 | 1.03 ± 0.013 | 1.12 ± 0.014 | 1.08 ± 0.031 | 1.05 ± 0.024 | 0.974 ± 0.0061
143B BONE | 0.978 ± 0.023 | 0.98 ± 0.023 | 0.995 ± 0.012 | 1.01 ± 0.042 | 0.946 ± 0.0014 | 0.977 ± 0.0014 | 0.82 ± 0.03 | 0.612 ± 0.028 |  | 1.09 ± 0.041 | 1.15 ± 0.11 | 1.1 ± 0.036 | 1.12 ± 0.035 | 1.1 ± 0.033 | 1.14 ± 0.12 | 1.12 ± 0.15
CAL72 BONE | 1.03 ± 0.032 | 1.02 ± 0.028 | 1 ± 0.044 | 1 ± 0.05 | 1.04 ± 0.04 | 1.01 ± 0.037 | 0.694 ± 0.066 | 0.556 ± 0.013 | 1.1 ± 0.045 | 1.08 ± 0.069 | 1.11 ± 0.037 | 1.12 ± 0.034 | 1.14 ± 0.082 | 1.13 ± 0.07 | 0.967 ± 0.17 | 0.832 ± 0.21
SUM149.B1*.S BREAST | 0.884 ± 0.032 | 0.943 ± 0.024 | 0.928 ± 0.028 | 0.883 ± 0.042 | 0.937 ± 0.066 | 0.939 ± 0.059 | 0.55 ± 0.061 | 0.394 ± 0.096 | 1.17 ± 0.043 | 1.1 ± 0.022 | 1.14 ± 0.065 | 1.16 ± 0.087 | 1.18 ± 0.051 | 1.16 ± 0.099 | 1.14 ± 0.07 | 1.2 ± 0.034
CHLA90 AUTONOMIC GANGLIA | 0.941 ± 0.057 | 0.925 ± 0.035 | 0.906 ± 0.067 | 0.868 ± 0.025 | 0.864 ± 0.039 | 0.865 ± 0.021 | 0.827 ± 0.018 | 0.796 ± 0.032 | 0.969 ± 0.013 | 0.966 ± 0.061 | 0.985 ± 0.077 | 0.98 ± 0.039 |  | 1.16 ± 0.078 | 1.09 ± 0.088 | 1.05 ± 0.11
YAMATO SYNOVIAL | 0.889 ± 0.13 | 0.929 ± 0.095 | 0.955 ± 0.081 | 1.03 ± 0.075 | 1.21 ± 0.083 | 1.11 ± 0.08 | 0.871 ± 0.088 | 0.796 ± 0.033 | 1.22 ± 0.14 | 1.27 ± 0.022 | 1.37 ± 0.14 | 1.4 ± 0.037 | 1.23 ± 0.14 | 1.28 ± 0.096 | 1.23 ± 0.066 | 1.31 ± 0.14
LM7 BONE | 0.745 ± 0.055 | 0.756 ± 0.039 | 0.834 ± 0.029 | 0.823 ± 0.091 | 0.91 ± 0.048 | 0.767 ± 0.05 | 0.402 ± 0.022 | 0.289 ± 0.044 | 1.02 ± 0.12 | 1.07 ± 0.039 | 1.06 ± 0.063 | 1.09 ± 0.075 | 1.15 ± 0.092 | 1.09 ± 0.039 | 1.03 ± 0.016 | 0.914 ± 0.058
HCT15 LARGE INTESTINE | 0.883 ± 0.065 | 0.887 ± 0.025 | 0.852 ± 0.011 | 0.85 ± 0.019 | 0.805 ± 0.022 | 0.66 ± 0.044 | 0.15 ± 0.019 | 0.104 ± 0.0095 | 1.08 ± 0.077 | 1.05 ± 0.055 | 1.07 ± 0.085 | 1.06 ± 0.097 | 1.04 ± 0.054 | 1.07 ± 0.025 | 1.07 ± 0.054 | 1.09 ± 0.056
SG27 HEADNECK | 1.12 ± 0.06 | 0.997 ± 0.085 | 0.934 ± 0.081 | 1.02 ± 0.011 | 0.949 ± 0.11 | 1.01 ± 0.17 | 1.01 ± 0.11 | 0.864 ± 0.14 | 1.09 ± 0.16 | 1.06 ± 0.14 | 1.05 ± 0.023 | 1.02 ± 0.059 | 1.16 ± 0.063 | 1 ± 0.23 | 1.21 ± 0.11 | 1.1 ± 0.078
MG63 BONE | 0.861 ± 0.018 | 0.876 ± 0.018 | 0.864 ± 0.025 | 0.829 ± 0.018 | 0.831 ± 0.02 | 0.64 ± 0.075 | 0.22 ± 0.035 | 0.132 ± 0.0027 | 1.06 ± 0.04 | 1.04 ± 0.027 | 1.1 ± 0.048 | 1.07 ± 0.051 | 1.09 ± 0.05 | 1.05 ± 0.048 | 1.02 ± 0.036 | 1.02 ± 0.049
SCC36 HEADNECK | 0.763 ± 0.09 | 0.762 ± 0.064 | 0.726 ± 0.027 | 0.7173 ± 0.004 | 0.998 ± 0.081 | 0.907 ± 0.1 | 0.631 ± 0.011 | 0.499 ± 0.012 | 1.07 ± 0.16 | 0.969 ± 0.026 | 1.13 ± 0.046 | 1.1 ± 0.047 | 1.07 ± 0.047 | 1.1 ± 0.078 | 0.883 ± 0.06 | 0.732 ± 0.074
MDAMB453 BREAST | 1.06 ± 0.051 | 1.03 ± 0.011 | 1.05 ± 0.045 | 1.09 ± 0.064 | 1.067 ± 0.009 | 1.14 ± 0.052 | 0.851 ± 0.061 | 0.711 ± 0.024 | 1.09 ± 0.098 | 1.07 ± 0.07 | 1.11 ± 0.066 | 1.17 ± 0.16 | 1.1 ± 0.068 | 1.07 ± 0.029 | 1.07 ± 0.039 | 1.02 ± 0.026
HCC1395 BREAST | 0.865 ± 0.04 | 0.881 ± 0.14 | 0.84 ± 0.1 | 0.902 ± 0.042 | 0.823 ± 0.12 | 0.872 ± 0.074 | 0.761 ± 0.12 | 0.73 ± 0.065 | 1.26 ± 0.13 | 1.15 ± 0.057 | 1.33 ± 0.13 | 1.25 ± 0.048 | 1.19 ± 0.13 | 1.12 ± 0.12 | 1.04 ± 0.11 | 1.09 ± 0.16
HOSMNG BONE | 0.966 ± 0.025 | 0.983 ± 0.011 | 0.992 ± 0.015 | 1.01 ± 0.021 | 1.05 ± 0.048 | 1.03 ± 0.083 | 0.984 ± 0.029 | 0.845 ± 0.035 | 0.922 ± 0.073 | 0.948 ± 0.032 | 0.996 ± 0.083 | 0.963 ± 0.038 | 1.1 ± 0.017 | 1.06 ± 0.032 | 1.07 ± 0.077 | 1.03 ± 0.078
SG32 HEADNECK | 0.921 ± 0.32 | 0.967 ± 0.23 | 0.818 ± 0.069 | 0.825 ± 0.17 | 0.824 ± 0.071 | 0.698 ± 0.048 | 0.593 ± 0.094 | 0.427 ± 0.05 | 1.09 ± 0.33 | 1.93 ± 1.3 | 1.26 ± 0.11 | 1.18 ± 0.25 | 1.09 ± 0.093 | 0.982 ± 0.053 | 1.12 ± 0.087 | 1.21 ± 0.2
MFM223 BREAST | 0.719 ± 0.028 | 0.784 ± 0.13 | 0.702 ± 0.076 | 0.703 ± 0.032 | 0.961 ± 0.049 | 0.923 ± 0.0095 | 0.789 ± 0.047 | 0.681 ± 0.047 | 1.28 ± 0.067 | 1.21 ± 0.043 | 1.19 ± 0.084 | 1.22 ± 0.13 | 1.2 ± 0.043 |  | 1.1 ± 0.062 | 0.932 ± 0.043
MDAMB134 BREAST | 0.714 ± 0.15 | 0.771 ± 0.044 | 0.844 ± 0.011 | 0.724 ± 0.047 | 0.804 ± 0.04 | 0.862 ± 0.12 | 0.733 ± 0.091 | 0.753 ± 0.088 | 1.32 ± 0.15 | 1.06 ± 0.073 | 1.05 ± 0.011 | 0.975 ± 0.088 | 1.16 ± 0.074 | 0.932 ± 0.037 | 0.887 ± 0.095 | 0.908 ± 0.089
H23 LUNG | 0.955 ± 0.013 | 0.954 ± 0.032 | 0.886 ± 0.057 | 0.763 ± 0.028 | 0.509 ± 0.026 | 0.338 ± 0.0076 | 0.193 ± 0.014 | 0.118 ± 0.011 | 1.06 ± 0.045 | 1.05 ± 0.026 | 1.07 ± 0.05 | 1.03 ± 0.016 | 1.07 ± 0.023 | 1.09 ± 0.094 | 1.07 ± 0.08 | 1.06 ± 0.11

— the supplement of paper PMC6045584
